# Results from ChEMBL document CHEMBL1275309, “Exploring new inhibitors of Plasmodium falciparum purine nucleoside phosphorylase” (Eur J Med Chem, 2010).
# Tests used:
# [1] = biological target: T1, Purine nucleoside phosphorylase (Plasmodium falciparum, UniProt Q8T9Z7); assay: Inhibition of Plasmodium falciparum PNP expressed in Escherichia coli BL21(DE3) cells by spectrophotometry
# T1 sequence (Q8T9Z7 whole entry): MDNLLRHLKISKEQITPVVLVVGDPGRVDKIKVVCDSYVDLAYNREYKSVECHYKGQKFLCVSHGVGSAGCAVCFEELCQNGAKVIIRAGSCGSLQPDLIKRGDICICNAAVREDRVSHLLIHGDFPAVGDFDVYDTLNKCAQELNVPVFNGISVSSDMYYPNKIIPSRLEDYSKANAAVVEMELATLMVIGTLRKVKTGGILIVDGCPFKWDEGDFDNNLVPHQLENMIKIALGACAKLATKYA
# [2] = biological target: Uridine phosphorylase 1 (Homo sapiens, UniProt Q16831); assay: Inhibition of human uridine phosphorylase
# [3] = tested on: Plasmodium falciparum; assay: Antiplasmodial activity against erythrocytic stages of Plasmodium falciparum 3D7 after 48 hrs by SYBR green assay; assay type: functional, organism-based; details: 3D7, 48 h
# [4] = biological target: T2, Purine nucleoside phosphorylase (Homo sapiens, UniProt P00491); assay: Inhibition of human PNP
# T2 sequence (P00491 whole entry): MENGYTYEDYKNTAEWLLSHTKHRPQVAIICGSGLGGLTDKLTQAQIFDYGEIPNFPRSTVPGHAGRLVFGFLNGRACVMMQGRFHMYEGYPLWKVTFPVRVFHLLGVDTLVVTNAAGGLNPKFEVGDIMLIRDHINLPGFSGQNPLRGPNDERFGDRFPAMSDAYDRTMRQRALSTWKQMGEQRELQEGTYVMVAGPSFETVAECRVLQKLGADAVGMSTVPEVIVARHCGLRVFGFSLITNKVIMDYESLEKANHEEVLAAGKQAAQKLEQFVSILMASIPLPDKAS
# Sequence of Uridine phosphorylase 1 (Q16831 whole entry): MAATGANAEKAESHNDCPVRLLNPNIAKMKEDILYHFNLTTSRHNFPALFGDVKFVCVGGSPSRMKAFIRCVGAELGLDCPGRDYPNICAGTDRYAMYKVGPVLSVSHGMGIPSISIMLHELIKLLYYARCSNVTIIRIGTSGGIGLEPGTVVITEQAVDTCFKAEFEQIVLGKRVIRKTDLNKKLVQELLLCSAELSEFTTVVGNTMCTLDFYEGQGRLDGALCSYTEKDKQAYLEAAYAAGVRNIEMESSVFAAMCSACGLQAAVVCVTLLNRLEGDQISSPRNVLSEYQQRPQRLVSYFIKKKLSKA
Compound,IC50 [1],Ki [2],Ki [1],EC50 [3],Kd [4]
O=C1NC(=O)C(Cc2cccc(OCc3ccccc3)c2)C(=O)N1,> 1000 µM,2.3 µM,–,–,–
O=c1ccn(CCCCN2CCCC2)c(=O)[nH]1,524 µM,–,105 µM,> 1000 µM,–
O=c1cc[nH]c(=O)n1CCN1CCC[C@H]1CO,366 µM,–,75 µM,> 1000 µM,–
O=C1NC(=O)N(COCCO)C(=O)C1Cc1cccc(OCc2ccccc2)c1 (stereo not drawn),> 1000 µM,0.0011 µM,0.0011 µM,–,–
O=c1ccn(CCCCN2CCC[C@H]2CO)c(=O)[nH]1,592 µM,–,113 µM,> 1000 µM,–
O=c1cc[nH]c(=O)n1CCN1CCCC1,42 µM,–,6 µM,> 500 µM,–
O=C1NC(=O)C(Cc2ccccc2)C(=O)N1,> 1000 µM,–,–,–,–
O=c1ccn(CCCN2CCCC2)c(=O)[nH]1,230 µM,–,59 µM,> 1000 µM,–
O=c1[nH]cnc2c(CN3CCCC3)c[nH]c12,–,–,–,–,0.0055 µM
O=c1ccn(CCCN2CCC[C@H]2CO)c(=O)[nH]1,712 µM,–,136 µM,375 µM,–
O=c1ccn(CCN2CCCC2)c(=O)[nH]1,141 µM,–,27 µM,> 500 µM,–
